Experimental data as given in article PMC9421654, “Discovery of Substituted Di(pyridin-2-yl)-1,2,4-thiadiazol-5-amines as Novel Macrofilaricidal Compounds for the Treatment of Human Filarial Infections” (Journal of Medicinal Chemistry, 2022).
pEC50, pIC50: −log10 of the molar value. In brackets after ≈: the same amount, converted by molar mass. Several values for one entry are separate records, joined by “and”; a condition that tells them apart may be missing. Equal values may be shown once. Read-outs that look alike come from different tables or passages of the source.

Legend:
[1] = Liver S9 metabolic stability assay, human; format: in vitro ADME; conditions: 3 μM, 60 min
Method in brief: (§1)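 Rat and human liver S9 (0.75 and 1.2 mg/ml) with 1 mM NADPH, 0.5 mM UDPGA, 2.5 mM GSH, 0.05 mg/ml PAPS, 3µM substrate, 60 min at 37 °C in Tris/MgCl2 pH 7.4. Mouse microsomes 0.3 mg/mL, 1 mM NADPH, 3µM, 30 min, phosphate pH 7.4. LC-MS/MS, % remaining, triplicate.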

[2] = test system: O. volvulus L5 larvae; assay: O. volvulus L5 ex vivo assay, motility; format: cell-based; conditions: Onchocerca volvulus, 504 h, read-out: O. volvulus L5 % inhibition of motility
Description: O. volvulus larvae (L4) were prepared using cryopreserved O. volvulus L3 cultured in a medium containing 1:1 NCTC-109 and IMDM (Iscove’s modified Dulbecco’s medium) supplemented with Glutamax (1×) and 2× Antibiotic-Antimycotic (Life Technologies). This culturing medium was then added in transwell 24-well plates containing human umbilical vein endothelial cell (HUVEC) monolayers, containing the L4 larvae. A week prior to conducting an assay, the cultured O. volvulus larvae (L5) were transferred into a Petri dish containing fresh medium. Aliquots of 8–10 worms were retrieved from the Petri dish and placed inside new transwells over newly seeded HUVEC monolayers in the medium described above. After the transfer of O. volvulus L5 to the plates, the test compounds were dissolved in DMSO, added to each well, and incubated at 37 °C in a 5% CO2. The media containing freshly prepared compounds were partially replaced every 2–3 days for 14 days. After 14 days, the media were completely replaced. The untreated control contains the media described above with a final concentration of 0.05% DMSO. The motility was measured every 2–3 days with the following scale: 100% motility, constant coiling movement; 75% motility, slower coiling; 50% motility, slow and intermittent movement; 25% motility, very slow movement or twitching; and 0% motility, no movement. The motility was measured visually by two operators. On day 28, the viability of O. volvulus L5 was measured by MTT. Following washout and incubation during 1 h in PBS under 5% CO2, worms were observed under an inverted microscope. Worms were considered dead if no staining or less than 50% within the worm was observed. Otherwise, if worms stained blue or more than 50% stained, then they are considered alive. All test treatments were performed in duplicates. Significance was determined using a t test.

[3] = LogD measurement (octanol-water); format: physicochemical
Method in brief: (§2)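 Human and rat liver microsomes (0.3 mg/mL) with 1 mM NADPH and 3µM substrate, 30 minutes at 37 °C in pH 7.4 phosphate/MgCl2, triplicate; LC-MS/MS percentage remaining. LogD: octanol/aqueous buffer (pH 7.4, 2.2, 6.8, 5), 24 h shaking at room temperature. Kinetic solubility: 200 µM, 2% DMSO, 24 h, filtered.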

[4] = test system: O. volvulus L5 larvae; assay: O. volvulus L5 ex vivo assay, MTT viability; format: cell-based, Onchocerca volvulus; conditions: Day 21, 1 uM
Description: This culturing medium was then added in transwell 24-well plates containing human umbilical vein endothelial cell (HUVEC) monolayers, containing the L4 larvae. A week prior to conducting an assay, the cultured O. volvulus larvae (L5) were transferred into a Petri dish containing fresh medium. […] After the transfer of O. volvulus L5 to the plates, the test compounds were dissolved in DMSO, added to each well, and incubated at 37 °C in a 5% CO2. The media containing freshly prepared compounds were partially replaced every 2–3 days for 14 days. After 14 days, the media were completely replaced. The untreated control contains the media described above with a final concentration of 0.05% DMSO. […] The motility was measured visually by two operators. […] Following washout and incubation during 1 h in PBS under 5% CO2, worms were observed under an inverted microscope. Worms were considered dead if no staining or less than 50% within the worm was observed. Otherwise, if worms stained blue or more than 50% stained, then they are considered alive. All test treatments were performed in duplicates. Significance was determined using a t test.

[5] = Liver S9 metabolic stability assay, rat; format: in vitro ADME; conditions: 3 μM, 60 min
Method in brief: as §1

[6] = test system: O. gutturosa adult male worms; assay: O. gutturosa adult worm ex vivo assay, motility; format: cell-based, Onchocerca gutturosa; conditions: Onchocerca gutturosa
Method in brief: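 Adult male O. gutturosa from naturally infected cattle were cultured in supplemented MEM at 37 °C, 5% CO2, with four worms per concentration in serial 1-in-4 dilutions. Motility (0–10 scale) was scored every 24 h to 120 h. EC50 (geomean, n=2) for motility reduction came from 4PL fits, and viability was checked by MTT at 120 h.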

[7] = test system: O. gutturosa adult male worms; assay: O. gutturosa adult worm ex vivo assay, MTT/formazan viability; format: cell-based, Onchocerca gutturosa; conditions: Onchocerca gutturosa, supplement; SD in brackets in the PDF table; read-out: O. gutturosa EC50 (uM) MTT viability inhibition
Method in brief: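 Adult male worms from naturally infected Gambian cattle were kept individually in MEM with 10% newborn calf serum at 37 °C, 5% CO2; four worms per concentration. Motility was scored 0-10 every 24 h to 120 h as a percentage of maximum, with ≥50% reduction versus untreated counted active. Afterwards, MTT (0.5 mg/mL, 30 min) formazan was read at 490 nm.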

[8] = test system: THLE-2 cells; assay: THLE-2 cytotoxicity assay (ATP); conditions: Homo sapiens, THLE-2, read-out: THLE IC50
Description: In vitro cytotoxicity of select compounds was tested in a “normal” proliferating transformed human liver epithelial (THLE-2) cell line.[35] Compounds were incubated in THLE-2 cells for 24 and 72 h, and adenosine triphosphate (ATP) levels were used as an indicator of cell viability.
THLE-2 Cytotoxicity Assay: THLE-2 cells (ATCC, catalog #CRL-2706) were plated in LHC-8 Media (Invitrogen, catalog #12679015) supplemented with fetal bovine serum (GE, catalog #SH30088.03), 70 ng/mL phosphoethanolamine (Sigma, catalog #P0503), 5 ng/mL EGF (Sigma, catalog #E9644), 1X penicillin/streptomycin (Gibco, catalog #15140148), and 1X glutamine (Invitrogen, catalog #25030024) in 384-well clear-bottom, black walled plates at a density of 3750 cells/well (15μL/well). After plating, cells were incubated overnight at 37°C in an incubator with 5% CO2 and 90% humidity. Compounds were first serially diluted in dimethyl sulfoxide then diluted in LHC-8 media growth media to 2X concentration. Cells were dosed with 15μL of each dose for final concentrations between 0.01 – 300 μM. Cells were incubated with compounds for 24 or 72 hours. Cytotoxicity was determined with Cell Titer Glo Luminescent ATP Assay (Promega, catalog #G7573) according to the manufacturer’s instructions. Tamoxifen (Sigma, catalog #BC9353476) was used as a positive control. levels at each dose were normalized to that of cells dosed with dimethyl sulfoxide vehicle alone and IC50 values were calculated from non-linear regression fits of dose-response curves plotted

[9] = target: T1, P-gp (MDR1) (Homo sapiens, UniProt P08183); assay: MDCK/MDR1 permeability and efflux; format: in vitro ADME; conditions: dog
T1 construct: expressed in transfected cells; host or cells: MDCK (Madin Darby canine kidney) cells
T1 sequence (P08183 whole entry): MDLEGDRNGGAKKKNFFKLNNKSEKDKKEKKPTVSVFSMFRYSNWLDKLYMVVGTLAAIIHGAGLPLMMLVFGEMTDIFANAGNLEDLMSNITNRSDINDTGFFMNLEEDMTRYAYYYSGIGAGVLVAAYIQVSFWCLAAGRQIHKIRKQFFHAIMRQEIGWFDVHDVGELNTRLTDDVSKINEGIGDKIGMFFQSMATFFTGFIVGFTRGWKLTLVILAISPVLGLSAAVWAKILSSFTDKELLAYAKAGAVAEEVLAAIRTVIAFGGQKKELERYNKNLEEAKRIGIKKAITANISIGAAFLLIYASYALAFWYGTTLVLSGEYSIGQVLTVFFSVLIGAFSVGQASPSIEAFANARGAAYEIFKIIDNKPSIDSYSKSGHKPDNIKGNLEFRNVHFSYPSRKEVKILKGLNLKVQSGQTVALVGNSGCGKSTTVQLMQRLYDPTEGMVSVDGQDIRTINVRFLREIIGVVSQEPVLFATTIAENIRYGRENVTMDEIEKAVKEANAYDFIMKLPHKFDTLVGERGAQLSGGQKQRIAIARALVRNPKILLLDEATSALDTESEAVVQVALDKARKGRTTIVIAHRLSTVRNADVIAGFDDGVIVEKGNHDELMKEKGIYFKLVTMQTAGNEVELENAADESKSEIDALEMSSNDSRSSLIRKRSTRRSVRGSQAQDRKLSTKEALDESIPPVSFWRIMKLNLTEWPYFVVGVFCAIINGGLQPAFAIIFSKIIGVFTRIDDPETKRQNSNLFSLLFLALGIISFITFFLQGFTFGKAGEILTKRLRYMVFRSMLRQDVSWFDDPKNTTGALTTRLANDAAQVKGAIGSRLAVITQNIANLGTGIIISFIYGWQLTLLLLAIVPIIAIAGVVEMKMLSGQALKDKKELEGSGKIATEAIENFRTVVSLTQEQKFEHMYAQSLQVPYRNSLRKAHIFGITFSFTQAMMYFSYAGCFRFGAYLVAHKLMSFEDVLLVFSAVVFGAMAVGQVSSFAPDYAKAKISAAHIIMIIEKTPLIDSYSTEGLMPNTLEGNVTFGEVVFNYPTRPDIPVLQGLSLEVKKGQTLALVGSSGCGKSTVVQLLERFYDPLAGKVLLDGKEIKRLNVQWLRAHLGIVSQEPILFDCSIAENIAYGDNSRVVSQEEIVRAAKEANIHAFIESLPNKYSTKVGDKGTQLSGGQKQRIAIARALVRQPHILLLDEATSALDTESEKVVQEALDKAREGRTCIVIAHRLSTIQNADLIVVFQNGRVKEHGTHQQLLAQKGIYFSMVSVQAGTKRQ
Excerpt: Our approach was to target compounds with efflux ratio (ER) >2.5 in the MDCK cell line transfected with MDR1 (multidrug resistance-1 transfected Madin Darby canine kidney cell line). […] Our goal was to impart structural elements designed to impart Pgp recognition.

[10] = target: T2, hERG potassium channels (KCNH2, expressed in HEK293 cells) (Homo sapiens, UniProt Q12809); assay: hERG inhibition; format: cell-based; conditions: supplement
T2 construct: expressed in transfected cells
T2 sequence (Q12809 whole entry): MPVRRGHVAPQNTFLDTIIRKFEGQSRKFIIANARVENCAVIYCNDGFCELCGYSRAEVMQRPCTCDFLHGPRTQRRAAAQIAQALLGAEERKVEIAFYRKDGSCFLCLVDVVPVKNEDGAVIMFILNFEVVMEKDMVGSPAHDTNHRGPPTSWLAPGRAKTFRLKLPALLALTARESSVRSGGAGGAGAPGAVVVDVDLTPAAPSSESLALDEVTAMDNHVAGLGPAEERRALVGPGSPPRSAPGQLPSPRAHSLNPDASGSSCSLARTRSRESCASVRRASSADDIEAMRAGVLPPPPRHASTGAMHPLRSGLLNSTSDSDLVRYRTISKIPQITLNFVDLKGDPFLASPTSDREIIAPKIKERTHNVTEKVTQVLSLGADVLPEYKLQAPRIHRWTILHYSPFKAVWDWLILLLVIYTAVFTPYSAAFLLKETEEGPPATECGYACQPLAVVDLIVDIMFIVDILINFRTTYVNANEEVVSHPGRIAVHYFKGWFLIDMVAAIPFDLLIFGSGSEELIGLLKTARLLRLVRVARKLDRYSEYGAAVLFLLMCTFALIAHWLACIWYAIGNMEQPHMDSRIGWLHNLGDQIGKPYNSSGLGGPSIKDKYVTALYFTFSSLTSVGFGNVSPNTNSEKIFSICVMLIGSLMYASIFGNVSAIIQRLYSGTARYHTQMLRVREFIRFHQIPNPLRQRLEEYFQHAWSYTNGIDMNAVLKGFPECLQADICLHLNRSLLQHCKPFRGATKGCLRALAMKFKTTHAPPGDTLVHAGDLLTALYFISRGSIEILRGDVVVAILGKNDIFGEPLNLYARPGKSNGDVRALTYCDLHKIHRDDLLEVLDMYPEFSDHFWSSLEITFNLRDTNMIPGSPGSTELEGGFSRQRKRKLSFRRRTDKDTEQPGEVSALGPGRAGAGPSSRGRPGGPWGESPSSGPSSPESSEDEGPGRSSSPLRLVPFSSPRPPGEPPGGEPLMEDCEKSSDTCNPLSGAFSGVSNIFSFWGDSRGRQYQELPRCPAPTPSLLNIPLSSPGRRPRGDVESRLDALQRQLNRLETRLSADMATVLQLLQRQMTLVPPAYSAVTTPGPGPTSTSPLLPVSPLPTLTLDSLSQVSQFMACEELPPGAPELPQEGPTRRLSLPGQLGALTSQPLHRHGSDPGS

[11] = Kinetic solubility measurement; format: physicochemical
Method in brief: as §2

[12] = supplement, read-out: measured logD
[13] = read-out: O. gutturosa EC50 μM (SD), ex vivo adult worm motility reduction, SD in brackets
[14] = read-out: O. gutturosa EC50 (uM) motility inhibition, supplement, SD in brackets in the PDF table

SMILES	Human S9 metabolic stability [1] [% remaining]	inhibition at 1 µM [2] [%]	logD at 24 h ([3]; pH 7.4, read-out: logD)	logD at 24 h [3, 12]	O. volvulus L5 % inhibition of viability [4] [%]	Rat S9 metabolic stability [5] [% remaining]	EC50 [6, 13] [µM]	EC50 [6, 14] [µM]	pEC50 ([6]; read-out: O. gutturosa EC50, adult worm motility, bound stated)	EC50 [7] [µM]	pIC50 [8]	Papp A→B [9] [×10⁻⁶ cm/s]	pIC50 [10]	solubility kinetic at 24 h ([11]; 10 mM DMSO stock solutions)	solubility kinetic at 24 h ([11]; supplement) [µM]
CC(C)c1cccnc1Nc1nc(-c2ccc(OC3CC3)cn2)ns1 [Compound 23, 3-(5-Cyclopropoxypyridin-2-yl)-N-(3-isopropylpyridin-2-yl)-1,2,4-thiadiazol-5-amine]	39	100	2.5	2.5	100	78	0.04	0.038	> 7.00	0.012	–	–	–	–	–
CC(=O)N(C)c1cccnc1Nc1nc(-c2cc(C(F)(F)F)c(OC(C)C)cn2)ns1 [Compound 48]	–	–	3.5	3.5	–	–	3.71	–	–	1.05	5.08	6.9	4.59	10.8 µM (≈ 4.86 µg/mL)	10.8 (≈ 4.89 µg/mL)
CC(C)Oc1cnc(-c2nsc(Nc3ncccc3N(C)C(=O)C3CC3)n2)cc1C(F)(F)F [Compound 49, N-(2-((3-(5-Isopropoxy-4-(trifluoromethyl)pyridin-2-yl)-1,2,4-thiadiazol-5-yl)amino)pyridine-3-yl)-N-methylcyclopropanecarboxamide]	–	–	3.63	3.63	–	–	1.11	–	–	3.7	4.74	8.8	< 4.52	2.67 µM (≈ 1.28 µg/mL)	–
CC(=O)N(C)c1cnc(Nc2nc(-c3ccc(OC(C)C)cn3)ns2)c(C)c1 [Compound 51]	–	–	2.2	2.2	–	–	0.49	0.488	–	0.46	–	30.3	–	15 µM (≈ 5.98 µg/mL)	–
CC(C)Oc1cnc(-c2nsc(Nc3ncccc3N3CCCC3=O)n2)cc1C(F)(F)F [Compound 52, 1-(2-((3-(5-Isopropoxy-4-(trifluoromethyl)pyridin-2-yl)-1,2,4-thiadiazol-5-yl)amino)pyridin-3-yl)pyrrolidin-2-one]	–	–	2.7	2.7	–	–	1.73	–	–	1.95	–	12.9	–	9.95 µM (≈ 4.62 µg/mL)	–
CC(=O)N(C)c1cc(C(F)(F)F)cnc1Nc1nc(-c2ccc(OC(C)C)cn2)ns1 [Compound 54, N-(2-((3-(5-Isopropoxypyridin-2-yl)-1,2,4-thiadiazol-5-yl)amino)-5-(trifluoromethyl)pyridin-3-yl)-N-methylacetamide]	–	–	3.13	3.13	–	–	0.14	0.139	–	0.15	5.21	9.9	< 4.52	13.1 µM (≈ 5.95 µg/mL)	–
CC(C)Oc1cccnc1-c1nsc(Nc2ncc(C(F)(F)F)cc2C(=O)N(C)C)n1 [Compound 58, 2-[[3-(3-Isopropoxy-2-pyridyl)-1,2,4-thiadiazol-5-yl]amino]-N,N-dimethyl-5-(trifluoromethyl)pyridine-3-carboxamide]	–	–	2.15	2.15	–	–	0.62	0.621	–	1.5	–	11.2	–	130 µM (≈ 58.9 µg/mL)	–
CC(C)Oc1ccc(-c2nsc(Nc3ncccc3C(=O)N(C)C)n2)nc1 [Compound 61, 2-((3-(5-Isopropoxypyridin-2-yl)-1,2,4-thiadiazol-5-yl)amino)-N,N-dimethylnicotinamide]	–	–	2.1	2.1	–	–	0.36	0.357	–	2.1	4.49	4.9	< 4.52	101 µM and 100.70 µM	–
